The text below walks through data of the Kinase Knowledgebase extract (Sharma et al. 2016).

The target in one assay is PIK3CA (human) (UniProt P42336). Nature of the assay: Enzyme Assay.
The target in a further assay is PIK3CG (human) (UniProt P48736). Nature of the assay: Inhibition of PIK3CG Kinase Activity.
Chain of PIK3CG (human) (P48736 whole entry, looked up): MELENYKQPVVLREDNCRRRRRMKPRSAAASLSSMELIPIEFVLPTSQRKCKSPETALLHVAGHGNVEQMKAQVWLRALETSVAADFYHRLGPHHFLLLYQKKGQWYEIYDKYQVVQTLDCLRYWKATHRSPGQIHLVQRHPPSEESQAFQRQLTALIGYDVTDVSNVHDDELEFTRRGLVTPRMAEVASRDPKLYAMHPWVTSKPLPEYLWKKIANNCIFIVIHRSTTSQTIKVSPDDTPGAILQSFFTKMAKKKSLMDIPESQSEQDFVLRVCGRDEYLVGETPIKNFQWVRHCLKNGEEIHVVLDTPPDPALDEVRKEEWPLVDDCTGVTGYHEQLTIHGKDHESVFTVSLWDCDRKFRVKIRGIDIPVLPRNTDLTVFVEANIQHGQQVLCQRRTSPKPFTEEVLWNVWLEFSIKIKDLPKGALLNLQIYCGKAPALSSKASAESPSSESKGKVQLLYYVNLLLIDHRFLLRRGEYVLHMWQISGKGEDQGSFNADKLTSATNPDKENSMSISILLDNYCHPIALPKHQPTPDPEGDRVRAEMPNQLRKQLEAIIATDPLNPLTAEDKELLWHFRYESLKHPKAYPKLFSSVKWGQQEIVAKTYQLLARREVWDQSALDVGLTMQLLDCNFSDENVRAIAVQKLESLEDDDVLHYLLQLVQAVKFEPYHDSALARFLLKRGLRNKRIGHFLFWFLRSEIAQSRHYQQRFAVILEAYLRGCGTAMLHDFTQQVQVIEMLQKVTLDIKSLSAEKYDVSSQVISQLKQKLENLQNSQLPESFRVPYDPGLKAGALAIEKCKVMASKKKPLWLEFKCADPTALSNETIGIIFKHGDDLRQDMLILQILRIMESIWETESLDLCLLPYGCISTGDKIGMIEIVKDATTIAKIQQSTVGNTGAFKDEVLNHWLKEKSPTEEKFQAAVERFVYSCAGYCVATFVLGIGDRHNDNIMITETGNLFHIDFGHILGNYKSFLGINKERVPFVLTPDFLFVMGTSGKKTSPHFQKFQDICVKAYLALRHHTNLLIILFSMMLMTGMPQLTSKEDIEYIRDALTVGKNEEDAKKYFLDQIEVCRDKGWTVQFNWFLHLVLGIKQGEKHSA

Chain of PIK3CA (human) (P42336 whole entry, looked up): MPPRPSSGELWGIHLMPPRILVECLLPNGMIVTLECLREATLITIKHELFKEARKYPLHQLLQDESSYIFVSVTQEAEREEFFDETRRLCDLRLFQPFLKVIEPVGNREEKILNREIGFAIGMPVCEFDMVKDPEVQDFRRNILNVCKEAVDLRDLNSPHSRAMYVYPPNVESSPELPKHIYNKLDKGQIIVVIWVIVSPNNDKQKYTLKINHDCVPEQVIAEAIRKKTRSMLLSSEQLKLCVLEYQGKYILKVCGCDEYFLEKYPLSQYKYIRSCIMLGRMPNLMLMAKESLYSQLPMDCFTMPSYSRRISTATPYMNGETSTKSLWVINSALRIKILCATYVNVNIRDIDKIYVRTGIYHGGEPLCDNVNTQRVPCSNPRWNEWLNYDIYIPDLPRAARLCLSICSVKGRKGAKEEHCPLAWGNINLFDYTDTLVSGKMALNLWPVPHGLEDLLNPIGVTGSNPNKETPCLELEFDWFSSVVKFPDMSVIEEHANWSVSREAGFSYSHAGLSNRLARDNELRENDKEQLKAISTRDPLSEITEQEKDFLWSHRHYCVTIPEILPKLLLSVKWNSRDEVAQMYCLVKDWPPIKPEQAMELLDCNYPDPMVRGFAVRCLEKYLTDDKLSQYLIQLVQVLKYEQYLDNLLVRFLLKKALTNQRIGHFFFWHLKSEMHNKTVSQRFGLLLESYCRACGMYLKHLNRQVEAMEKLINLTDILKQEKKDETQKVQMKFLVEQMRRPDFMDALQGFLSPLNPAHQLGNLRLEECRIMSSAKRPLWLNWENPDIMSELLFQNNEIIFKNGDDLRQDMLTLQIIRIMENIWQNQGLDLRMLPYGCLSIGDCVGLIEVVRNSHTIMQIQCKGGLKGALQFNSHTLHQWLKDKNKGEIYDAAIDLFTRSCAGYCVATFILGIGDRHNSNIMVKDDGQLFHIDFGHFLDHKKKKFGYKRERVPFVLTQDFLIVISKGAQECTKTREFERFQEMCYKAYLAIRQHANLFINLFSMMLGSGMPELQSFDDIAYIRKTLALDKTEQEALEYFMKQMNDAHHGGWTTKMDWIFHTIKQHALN

One may read the IC50 as the concentration at which inhibition is half-maximal. Low values mean higher potency, high ones lower potency. For `Cn1cc(/C=C2\Oc3cc(O)cc(O)c3C2=O)c2c(-c3cncnc3)ccnc21`, the IC50 against PIK3CA (human) is 0.018 µM; against PIK3CG (human), 0.149 µM.

With `Cn1cc(/C=C2\Oc3ccc(NC(=O)Nc4ccc(Cl)nc4)cc3C2=O)c2c(N3CC4CCC(C3)O4)ccnc21`, the IC50 was 0.747 µM against PIK3CA (human) and 2.52 µM on PIK3CG (human).

With `CN(C)S(=O)(=O)c1ccc(-c2ccnc3c2c(/C=C2\Oc4cccc(O)c4C2=O)cn3C)cc1`, the IC50 on PIK3CA (human) was 0.038 µM; against PIK3CG (human) it was 0.106 µM.

For `Cn1cc(/C=C2\Oc3cccc(O)c3C2=O)c2c(-c3ccc(C(=O)N4CCOCC4)cc3)ccnc21`, the values for the IC50 against PIK3CA (human) and at PIK3CG (human) were 0.049 µM and 0.054 µM, respectively.

In the case of `Cn1cc(/C=C2\Oc3ccc(NC(=O)NC4CC4)cc3C2=O)c2c(N3CC4CCC(C3)O4)ccnc21`, the IC50 is 0.289 µM against PIK3CA (human) and 2.13 µM on PIK3CG (human).

On to `Cn1cc(/C=C2\Oc3cccc(O)c3C2=O)c2c(-c3ccc(C4=NCCCO4)cc3)ccnc21`, for which the results for the concentration for half-maximal inhibition (IC50) against PIK3CA (human) and against PIK3CG (human) were 0.109 µM and 0.276 µM, respectively.

Turning to `Cn1cc(/C=C2\Oc3cc(O)cc(O)c3C2=O)c2c(-c3ccc(OC(F)(F)F)cc3)ccnc21`, the IC50 on PIK3CA (human) is 0.183 µM; at PIK3CG (human) it was 0.139 µM.

Consider `Cn1cc(/C=C2\Oc3cccc(O)c3C2=O)c2c(-c3ccc[nH]3)ccnc21`, for which the results for the IC50 against PIK3CA (human) and against PIK3CG (human) were 0.381 µM and 2.09 µM, respectively.

On to `COc1ccc(-c2ccnc3c2c(/C=C2\Oc4cc(O)cc(O)c4C2=O)cn3C)cc1`, for which the IC50 at PIK3CA (human) is 0.052 µM; at PIK3CG (human), 0.157 µM.

Take `CN(C)C(=O)CN(C)C(=O)C1CCN(c2ccnc3c2c(C=C2Oc4ccc(NC(=O)Nc5cccnc5)cc4C2=O)cn3C)CC1`: the IC50 is 4.23 µM on PIK3CA (human) and 6.83 µM against PIK3CG (human).
